Key:
[1] = target: Voltage-gated inwardly rectifying potassium channel KCNH2 (Homo sapiens, UniProt Q12809); experiment: Inhibition of hERG by fluorescence polarization assay; assay type: toxicity
[2] = target: Somatostatin receptor type 5 (Homo sapiens, UniProt P35346); experiment: Agonist activity at human SST5 receptor expressed in CHO-K1 cells assessed as inhibition of NKH477-induced intracellular cAMP accumulation incubated for 20 mins by HTRF assay; assay type: cell-based
[3] = target: Somatostatin receptor type 4 (Homo sapiens, UniProt P31391); experiment: Agonist activity at human SST4 receptor expressed in CHO-K1 cells assessed as inhibition of NKH477-induced intracellular cAMP accumulation incubated for 20 mins by HTRF assay; assay type: cell-based
[4] = target: Somatostatin receptor type 1 (Homo sapiens, UniProt P30872); experiment: Agonist activity at human SST1 receptor expressed in CHO-K1 cells assessed as inhibition of NKH477-induced intracellular cAMP accumulation incubated for 20 mins by HTRF assay; assay type: cell-based
[5] = target: Somatostatin receptor type 3 (Homo sapiens, UniProt P32745); experiment: Agonist activity at human SST3 receptor expressed in CHO-K1 cells assessed as inhibition of NKH477-induced intracellular cAMP accumulation incubated for 20 mins by HTRF assay; assay type: cell-based
[6] = target: Somatostatin receptor type 2 (Homo sapiens, UniProt P30874)
Description: Agonist activity at human SST2 receptor expressed in CHO-K1 cells assessed as inhibition of NKH477-induced intracellular cAMP accumulation incubated for 20 mins by HTRF assay

Cytochrome P450 2D6 [7] = target: T1, Cytochrome P450 2D6 (Homo sapiens, UniProt P10635); experiment: Inhibition of human CYP2D6 expressed in insect cell microsomes in presence of NADP+ by fluorescence based analysis
Cytochrome P450 3A4 [8] = target: T2, Cytochrome P450 3A4 (Homo sapiens, UniProt P08684); experiment: Inhibition of human CYP3A4 expressed in insect cell microsomes in presence of NADP+ by fluorescence based analysis
Cytochrome P450 2C9 [9] = target: T3, Cytochrome P450 2C9 (Homo sapiens, UniProt P11712); experiment: Inhibition of human CYP2C9 expressed in insect cell microsomes at 10 uM in presence of NADP+ by fluorescence based analysis; assay type: ADME, Microsome
Cytochrome P450 2C19 [10] = target: T4, Cytochrome P450 2C19 (Homo sapiens, UniProt P33261); experiment: Inhibition of human CYP2C19 expressed in insect cell microsomes in presence of NADP+ by fluorescence based analysis
Cytochrome P450 2C19 [11] = target: T4, Cytochrome P450 2C19; experiment: Inhibition of human CYP2C19 expressed in insect cell microsomes at 10 uM in presence of NADP+ by fluorescence based analysis; assay type: ADME, Microsome
Cytochrome P450 3A4 [12] = target: T2, Cytochrome P450 3A4; experiment: Inhibition of human CYP3A4 expressed in insect cell microsomes at 10 uM in presence of NADP+ by fluorescence based analysis; assay type: ADME, Microsome
Cytochrome P450 2C9 [13] = target: T3, Cytochrome P450 2C9; experiment: Inhibition of human CYP2C9 expressed in insect cell microsomes in presence of NADP+ by fluorescence based analysis
Cytochrome P450 2D6 [14] = target: T1, Cytochrome P450 2D6; experiment: Inhibition of human CYP2D6 expressed in insect cell microsomes at 10 uM in presence of NADP+ by fluorescence based analysis; assay type: ADME, Microsome
[15] = Half life in Sprague-Dawley rat at 2.5 mg/kg, iv; details: in vivo
in vivo [16] = details: Sprague-Dawley, rat, po, 10 mg/kg
[17] = target: Somatostatin receptor type 2 (Rattus norvegicus, UniProt P30680); experiment: Agonist activity at rat SST2 receptor
[18] = Volume of distribution at steady state in Sprague-Dawley rat at 2.5 mg/kg, iv; details: in vivo
[19] = Clearance in Beagle dog at 2.5 mg/kg, iv; details: in vivo
[20] = Volume of distribution at steady state in Beagle dog at 2.5 mg/kg, iv; details: in vivo
in vivo [21] = details: beagle, dog, po, 10 mg/kg
in vivo [22] = details: beagle, dog, po, 10 mg/kg; remark: listed apart in the source
in vivo [23] = details: Sprague-Dawley, rat, po, 10 mg/kg; remark: listed apart in the source
[24] = Half life in Beagle dog at 2.5 mg/kg, iv; details: in vivo
[25] = target: Somatostatin receptor type 2 (Canis lupus familiaris, UniProt Q49LX6); experiment: Agonist activity at dog SST2 receptor
[26] = Clearance in Sprague-Dawley rat at 2.5 mg/kg, iv; details: in vivo

T1 sequence (P10635 whole entry): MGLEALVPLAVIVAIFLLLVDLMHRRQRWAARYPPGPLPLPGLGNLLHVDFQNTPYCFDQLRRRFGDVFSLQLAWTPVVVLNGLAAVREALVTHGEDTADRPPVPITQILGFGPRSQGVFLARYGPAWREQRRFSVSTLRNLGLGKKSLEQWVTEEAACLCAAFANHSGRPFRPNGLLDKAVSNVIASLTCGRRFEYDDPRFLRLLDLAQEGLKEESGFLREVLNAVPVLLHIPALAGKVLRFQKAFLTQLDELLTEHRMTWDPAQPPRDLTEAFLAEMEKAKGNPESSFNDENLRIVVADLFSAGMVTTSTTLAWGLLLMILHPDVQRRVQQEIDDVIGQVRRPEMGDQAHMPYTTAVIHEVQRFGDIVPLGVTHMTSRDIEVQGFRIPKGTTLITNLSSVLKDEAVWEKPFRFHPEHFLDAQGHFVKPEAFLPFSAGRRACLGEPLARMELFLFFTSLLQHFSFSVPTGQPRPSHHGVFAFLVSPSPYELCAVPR
T3 sequence (P11712 whole entry): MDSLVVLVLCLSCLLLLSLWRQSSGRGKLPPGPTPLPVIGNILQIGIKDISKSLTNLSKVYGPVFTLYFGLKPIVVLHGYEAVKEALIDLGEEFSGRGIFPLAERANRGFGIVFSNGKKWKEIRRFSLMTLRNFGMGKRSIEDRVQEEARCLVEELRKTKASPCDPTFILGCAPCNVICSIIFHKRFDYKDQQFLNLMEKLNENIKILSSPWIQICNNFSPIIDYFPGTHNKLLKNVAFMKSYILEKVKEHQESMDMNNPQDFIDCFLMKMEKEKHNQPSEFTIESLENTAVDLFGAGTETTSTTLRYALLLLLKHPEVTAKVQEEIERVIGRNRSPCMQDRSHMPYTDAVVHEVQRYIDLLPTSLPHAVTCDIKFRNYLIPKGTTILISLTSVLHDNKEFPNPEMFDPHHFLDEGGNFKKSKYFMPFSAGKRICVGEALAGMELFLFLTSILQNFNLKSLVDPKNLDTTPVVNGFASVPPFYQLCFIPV
Chain of Somatostatin receptor type 5 (P35346 whole entry): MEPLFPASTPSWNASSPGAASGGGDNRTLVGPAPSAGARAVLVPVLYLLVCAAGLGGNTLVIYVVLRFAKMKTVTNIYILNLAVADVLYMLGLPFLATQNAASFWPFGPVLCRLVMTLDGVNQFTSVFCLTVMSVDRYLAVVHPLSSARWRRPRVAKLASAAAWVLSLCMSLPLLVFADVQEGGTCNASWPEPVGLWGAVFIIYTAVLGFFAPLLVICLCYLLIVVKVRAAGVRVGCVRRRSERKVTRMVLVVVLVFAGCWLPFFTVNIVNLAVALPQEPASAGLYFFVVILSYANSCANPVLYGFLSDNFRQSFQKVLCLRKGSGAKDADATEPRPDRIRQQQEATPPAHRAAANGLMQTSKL
Chain of Voltage-gated inwardly rectifying potassium channel KCNH2 (Q12809 whole entry): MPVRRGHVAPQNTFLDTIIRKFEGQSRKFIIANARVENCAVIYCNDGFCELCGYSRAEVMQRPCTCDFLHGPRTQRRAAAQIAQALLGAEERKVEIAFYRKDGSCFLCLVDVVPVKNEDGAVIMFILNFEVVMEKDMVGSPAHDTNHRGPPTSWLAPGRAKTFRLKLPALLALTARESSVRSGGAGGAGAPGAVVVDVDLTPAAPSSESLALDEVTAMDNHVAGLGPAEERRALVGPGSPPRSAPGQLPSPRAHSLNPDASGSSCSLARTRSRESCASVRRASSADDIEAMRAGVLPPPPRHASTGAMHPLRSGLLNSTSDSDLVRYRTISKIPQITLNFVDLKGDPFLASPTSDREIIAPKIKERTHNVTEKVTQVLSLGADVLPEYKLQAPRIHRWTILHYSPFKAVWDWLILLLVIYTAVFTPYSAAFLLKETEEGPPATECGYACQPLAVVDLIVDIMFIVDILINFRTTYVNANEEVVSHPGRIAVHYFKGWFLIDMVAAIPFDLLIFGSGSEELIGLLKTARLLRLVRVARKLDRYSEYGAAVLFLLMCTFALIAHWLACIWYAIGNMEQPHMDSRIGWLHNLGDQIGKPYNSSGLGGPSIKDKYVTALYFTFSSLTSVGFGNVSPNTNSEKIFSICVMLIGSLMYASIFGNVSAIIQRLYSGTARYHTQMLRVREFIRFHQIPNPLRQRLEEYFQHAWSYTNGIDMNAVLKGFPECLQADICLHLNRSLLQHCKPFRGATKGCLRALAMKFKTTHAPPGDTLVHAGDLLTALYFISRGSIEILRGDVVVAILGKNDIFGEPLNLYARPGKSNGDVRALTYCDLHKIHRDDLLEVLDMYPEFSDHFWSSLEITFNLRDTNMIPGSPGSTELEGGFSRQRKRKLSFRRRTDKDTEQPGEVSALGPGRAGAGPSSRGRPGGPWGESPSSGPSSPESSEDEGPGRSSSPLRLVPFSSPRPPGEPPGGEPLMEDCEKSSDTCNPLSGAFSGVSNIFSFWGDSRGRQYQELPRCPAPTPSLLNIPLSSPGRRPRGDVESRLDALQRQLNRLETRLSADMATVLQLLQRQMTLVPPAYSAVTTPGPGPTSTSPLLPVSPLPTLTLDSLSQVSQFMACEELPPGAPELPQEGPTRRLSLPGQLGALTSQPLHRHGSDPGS
Chain of Somatostatin receptor type 4 (P31391 whole entry): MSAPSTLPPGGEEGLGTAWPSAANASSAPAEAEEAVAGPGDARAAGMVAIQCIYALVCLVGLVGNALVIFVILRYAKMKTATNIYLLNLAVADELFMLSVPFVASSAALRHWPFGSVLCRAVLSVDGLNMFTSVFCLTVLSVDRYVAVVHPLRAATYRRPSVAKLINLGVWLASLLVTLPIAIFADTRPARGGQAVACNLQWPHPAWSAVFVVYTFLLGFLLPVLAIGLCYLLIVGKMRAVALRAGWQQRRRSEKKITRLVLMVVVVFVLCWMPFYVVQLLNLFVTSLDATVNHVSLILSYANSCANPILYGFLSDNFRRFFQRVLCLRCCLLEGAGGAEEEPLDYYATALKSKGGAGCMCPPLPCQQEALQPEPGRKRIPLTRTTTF
Chain of Somatostatin receptor type 3 (P32745 whole entry): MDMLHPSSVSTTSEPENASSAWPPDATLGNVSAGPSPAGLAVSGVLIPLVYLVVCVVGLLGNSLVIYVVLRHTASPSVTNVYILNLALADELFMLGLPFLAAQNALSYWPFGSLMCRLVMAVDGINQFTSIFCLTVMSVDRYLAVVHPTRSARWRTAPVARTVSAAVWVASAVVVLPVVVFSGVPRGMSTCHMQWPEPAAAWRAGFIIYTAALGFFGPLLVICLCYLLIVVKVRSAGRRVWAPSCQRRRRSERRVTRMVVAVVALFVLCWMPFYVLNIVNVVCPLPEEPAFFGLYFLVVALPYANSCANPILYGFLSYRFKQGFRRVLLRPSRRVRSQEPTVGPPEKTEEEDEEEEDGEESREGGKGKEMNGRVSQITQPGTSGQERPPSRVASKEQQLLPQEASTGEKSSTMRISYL
Chain of Somatostatin receptor type 1 (P30872 whole entry): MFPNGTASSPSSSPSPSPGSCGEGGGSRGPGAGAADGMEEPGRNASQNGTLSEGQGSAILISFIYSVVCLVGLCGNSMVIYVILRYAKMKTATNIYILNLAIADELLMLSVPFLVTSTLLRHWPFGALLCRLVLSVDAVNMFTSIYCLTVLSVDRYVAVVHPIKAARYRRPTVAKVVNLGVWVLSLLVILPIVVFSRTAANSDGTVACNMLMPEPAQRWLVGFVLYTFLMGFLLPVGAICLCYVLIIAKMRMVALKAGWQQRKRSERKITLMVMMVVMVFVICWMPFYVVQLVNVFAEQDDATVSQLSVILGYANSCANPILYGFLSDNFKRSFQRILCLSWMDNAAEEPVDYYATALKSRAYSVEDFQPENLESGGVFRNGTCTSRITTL
T2 sequence (P08684 whole entry): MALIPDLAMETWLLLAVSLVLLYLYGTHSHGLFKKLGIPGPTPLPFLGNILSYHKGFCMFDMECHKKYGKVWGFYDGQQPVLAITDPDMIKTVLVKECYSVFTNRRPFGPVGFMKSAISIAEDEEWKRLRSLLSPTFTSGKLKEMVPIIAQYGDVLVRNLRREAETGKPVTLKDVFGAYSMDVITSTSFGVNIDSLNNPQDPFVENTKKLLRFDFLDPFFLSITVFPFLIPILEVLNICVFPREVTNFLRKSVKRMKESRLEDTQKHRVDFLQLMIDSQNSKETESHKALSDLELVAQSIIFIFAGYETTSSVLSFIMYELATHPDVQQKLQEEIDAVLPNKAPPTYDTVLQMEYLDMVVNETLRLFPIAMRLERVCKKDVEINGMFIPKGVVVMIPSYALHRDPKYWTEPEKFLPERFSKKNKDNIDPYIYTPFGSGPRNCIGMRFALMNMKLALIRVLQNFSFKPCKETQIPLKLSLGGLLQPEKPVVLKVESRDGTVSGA
Chain of Somatostatin receptor type 2 (Homo sapiens, UniProt P30874) (P30874 whole entry): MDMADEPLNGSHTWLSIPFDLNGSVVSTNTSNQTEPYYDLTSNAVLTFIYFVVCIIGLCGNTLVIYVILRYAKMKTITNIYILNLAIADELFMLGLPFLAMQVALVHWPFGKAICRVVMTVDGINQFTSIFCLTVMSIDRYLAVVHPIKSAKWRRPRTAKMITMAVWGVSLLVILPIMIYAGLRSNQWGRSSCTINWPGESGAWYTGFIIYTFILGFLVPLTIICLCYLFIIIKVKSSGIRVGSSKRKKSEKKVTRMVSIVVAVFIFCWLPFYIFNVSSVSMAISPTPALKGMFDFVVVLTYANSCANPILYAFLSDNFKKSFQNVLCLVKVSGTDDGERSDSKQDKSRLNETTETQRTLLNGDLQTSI
Chain of Somatostatin receptor type 2 (Canis lupus familiaris, UniProt Q49LX6) (Q49LX6 whole entry): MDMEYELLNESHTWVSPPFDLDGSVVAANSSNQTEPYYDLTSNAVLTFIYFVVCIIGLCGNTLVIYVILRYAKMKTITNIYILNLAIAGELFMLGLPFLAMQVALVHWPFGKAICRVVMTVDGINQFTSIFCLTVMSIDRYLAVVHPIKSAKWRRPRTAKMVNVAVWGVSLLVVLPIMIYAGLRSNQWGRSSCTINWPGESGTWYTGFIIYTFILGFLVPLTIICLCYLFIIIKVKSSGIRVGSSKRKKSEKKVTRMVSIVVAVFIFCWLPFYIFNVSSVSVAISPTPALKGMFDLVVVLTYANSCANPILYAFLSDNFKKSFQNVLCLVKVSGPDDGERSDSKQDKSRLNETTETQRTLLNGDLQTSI

Row | Structure (SMILES) | IC50 [1] | EC50 [2] | EC50 [3] | EC50 [4] | EC50 [5] | EC50 [6] | also measured
1 | NC1CCN(c2c(-c3cc(F)cc(F)c3)cnc3ccc(-c4cccc(O)c4)cc23)CC1 | < 1 µM | > 1 µM | 0.0158 µM | > 1 µM | > 1 µM |  | 
2 | N#Cc1cc(F)cc(-c2ccc3ncc(-c4cc(F)cc(F)c4)c(N4CCC(N)CC4)c3c2)c1O | 10 µM | > 1 µM | > 1 µM | > 1 µM |  | 0.00034 µM | IC50 (Cytochrome P450 2D6 [7]): > 10 µM; IC50 (Cytochrome P450 3A4 [8]): 10 µM; inhibition (INH) (Cytochrome P450 2C9 [9]): Not Active; IC50 (Cytochrome P450 2C19 [10]): 3.98 µM; inhibition (INH) (Cytochrome P450 2C19 [11]): Not Active; inhibition (INH) (Cytochrome P450 3A4 [12]): Not Active; IC50 (Cytochrome P450 2C9 [13]): 6.31 µM; inhibition (INH) (Cytochrome P450 2D6 [14]): Not Active
3 | NC1CCN(c2c(-c3cc(F)cc(F)c3)cnc3ccc(-c4ccccc4O)cc23)CC1 |  |  |  |  |  | 0.0034 µM | 
4 | N#Cc1cccc(-c2ccc3ncc(-c4cc(F)cc(F)c4)c(N4CCC(N)CC4)c3c2)c1O [PALTUSOTINE] |  | > 1 µM | 1 µM | > 1 µM | > 1 µM |  | half-life [15]: 2.8 h; Cmax (in vivo [16]): 0.129 µg/mL; IC50 (Cytochrome P450 2D6 [7]): > 10 µM; IC50 (Cytochrome P450 3A4 [8]): > 10 µM; EC50 [17]: 0.0012 µM; inhibition (INH) (Cytochrome P450 2C9 [9]): Not Active; IC50 (Cytochrome P450 2C19 [10]): 5.01 µM; Vd [18]: 1.5 L/kg; clearance [19]: 0.564 L/h/kg; Vd [20]: 3.5 L/kg; inhibition (INH) (Cytochrome P450 2C19 [11]): Not Active; inhibition (INH) (Cytochrome P450 3A4 [12]): Not Active; AUC(0-inf) (in vivo [21]): 10.4 µg·h/mL; IC50 (Cytochrome P450 2C9 [13]): 7.94 µM; Cmax (in vivo [22]): 1.37 µg/mL; inhibition (INH) (Cytochrome P450 2D6 [14]): Not Active; AUC(0-inf) (in vivo [23]): 1.61 µg·h/mL; half-life [24]: 7.5 h; EC50 [25]: 0.0066 µM; clearance [26]: 0.546 L/h/kg
5 | NC1CCN(c2c(-c3cc(F)cc(F)c3)cnc3ccc(-c4cccc(F)c4O)cc23)CC1 | 1 µM | > 1 µM | 0.0251 µM | > 1 µM | > 1 µM |  | 
6 | COc1cc(F)cc(-c2cnc3ccc(-c4cccc(C#N)c4O)cc3c2N2CCC(N)CC2)c1 |  | > 1 µM | > 1 µM | > 1 µM | > 1 µM |  | 
7 | N#Cc1cccc(-c2ccc3ncc(-c4cccc(F)c4)c(N4CCC(N)CC4)c3c2)c1O | > 10 µM | > 1 µM | 1 µM | > 1 µM | > 1 µM |  | 
8 | N#Cc1cccc(-c2ccc3ncc(-c4cc(F)cc(F)c4)c(N4CCC(N)CC4)c3c2)c1 |  |  |  |  |  | 0.0014 µM | 
9 | NC1CCN(c2c(-c3cc(Cl)cc(Cl)c3)cnc3ccccc23)CC1 |  |  |  |  |  | 0.14 µM | 
10 | Cc1cc(F)cc(-c2cnc3ccc(-c4cccc(C#N)c4O)cc3c2N2CCC(N)CC2)c1 |  | > 1 µM | > 1 µM | > 1 µM | > 1 µM | 0.00017 µM | 
